{"source": "patent US6716813B2", "about": "“Use of antimicrobial proteins and peptides for the treatment of otitis media and paranasal sinusitis” (priority 2000, dated 2004)", "key": {"NTHi": {"tested_on": "NTHi", "assay": "ultrastructural analysis (electron microscopy)", "format": "cell-based, nontypeable Haemophilus influenzae", "protocol": "(§1) […] The bacterial pellets were left in the fixative at 4° C. for 2 hr, post-fixed in 2% osmium tetroxide, dehydrated in ethanol and embedded in Eponate 12 (Ted Pella, Redding, Calif.). Sections were mounted in coated specimen grids, contrasted with uranyl acetate and lead citrate and examined in a transmission electron microscope (CM120 BioTwin, FEI-Philips, Hillsboro, Oreg.) operating at 80 kV. Images were recorded on photographic film and were subsequently digitized."}, "[1]": {"tested_on": "non-typeable Haemophilus influenzae (NTHi)", "format": "cell-based", "conditions": "10 μg/ml", "protocol": "The ability of a few of these innate immune mediators: human milk lysozyme (Lz), human β-defensins (HBD) 1 and 2 and human milk lactoferrin (LF) to inhibit the growth of non-typeable Haemophilus influenzae (NTHi) at other concentrations was also investigated using a different type of assay, a colony formation assay. The molecules were tested separately, as well as in combination, and the effect on NTHi growth was determined using a colony formation assay. […] In previous studies, it was shown that the concentration of lysozyme in middle ear effusion can be as high as 3.7 mg/ml and thus the concentrations used in these studies are well within the physiological range. Incubating the bacteria with 10 μg/ml of either human β-defensin 1 or 2 produced an even more pronounced effect, with close to a 95% reduction in the number of colonies. […] For example, the bacteria may be more sensitive to the antimicrobials in a liquid assay, such as the colony forming assay."}, "M. catarrhalis": {"tested_on": "M. catarrhalis", "assay": "ultrastructural analysis (electron microscopy)", "format": "cell-based, Moraxella catarrhalis", "protocol": "as §1"}, "NTHi strain12": {"tested_on": "NTHi strain12", "format": "cell-based, nontypeable Haemophilus influenzae", "conditions": "for effect of salt on the growth inhibitory effect against NTHi: 100 mM NaCl in gel", "protocol": "(§2) The bacteria used in the following examples were cultured as follows: Stocks of NTHi12 and M. catarrhalis […] (generous gift of Dr. Xin-Xing Gu) were maintained at -80° C. For experiments, the bacteria were plated on chocolate agar and incubated overnight at 37° C. in 5% CO2. A single colony was then picked and transferred to 10 ml of brain heart infusion (BHI, Becton Dickinson, Cockeysville, Md.), supplemented with hemin (10 μg/ml, Sigma, St. Louis, Mo.) and NAD (10 μg/ml, Sigma, St. Louis, Mo.), and allowed to grow overnight. In the morning, 1/10 volume of the overnight culture was transferred to fresh medium and incubated for 3-hours. The subculture was then washed twice with 10 mM sodium phosphate and the O.D. at 620 nm was determined. For the S. pneumoniae serotypes 3 and 6B (generous gift of Dr. Xin-Xing Gu), a 50 μl aliquot of the -80° C. stock was thawed on ice, added to 10 ml of Todd-Hewitt broth (THB, Becton Dickinson, Cockeysville, Md.) and cultured overnight. One tenth of the volume of the overnight culture was then transferred to fresh medium and incubated for 3-hours. The subculture was then washed twice with 10 mM sodium phosphate and the O.D. at 620 nm was determined. The radial assay method of […] and coworkers was used, with minor modifications ([…] et al., 1991). The subcultured bacteria (4×10^6 CFU/10 ml underlay gel) were mixed with melted underlay gel at 42° C. (0.1×culture broth-BHI for NTHi and Moraxella and THB for S. pneumoniae-10 mM sodium phosphate, 0.8% low electroendosmosis (EEO)-type agarose) and poured into 8 cm×8 cm square petri plates. The gel was allowed to solidify in the petri plates and wells were punched out with a calibrated 200 μl micropipette tip, cut off at the 50 μl mark (approximately 3 mm). The antimicrobial peptides and proteins were dissolved in 0.01% acetic acid and 4 μl was added to each well. The plates were then incubated for 3 hours at 37° C. in the 5% CO2 incubator. They were next overlaid with the overlay gel (0.5×culture broth, 10 mM sodium phosphate, 0.8% low EEO-type agarose) and covered. The plates were then allowed to incubate overnight at 37° C. in a 5% CO2. The diameter of the zones of inhibition produced by each of the antimicrobial molecules against the OM pathogens (NTHi, M. catarrhalis and S. pneumoniae) was then measured in three separate experiments and the average and standard deviation were calculated. Physiologically, salt concentrations vary depending on the site. However, typically they can be as high as 150 mM. Thus, the salt sensitivity of the antimicrobial molecules was tested. NaCl was added to the gel in Example 2 to obtain a final concentration of 100 mM."}, "[2]": {"tested_on": "S. pneumoniae serotype 6B", "assay": "ultrastructural analysis (electron microscopy)", "format": "cell-based, Streptococcus pneumoniae", "conditions": "10 μg/ml, three-hour treatment", "protocol": "(§3) Electron microscopy was performed by treating the bacterial cultures with antimicrobial protein or peptide for 3 hours, mixing with an equal volume of 5% buffered glutaradehyde (pH 7.4) and centrifuging (5000×g, for 20 minutes). The bacterial pellets were left in the fixative at 4° C. for 2 hr, post-fixed in 2% osmium tetroxide, dehydrated in ethanol and embedded in Eponate 12 (Ted Pella, Redding, Calif.). Sections were mounted in coated specimen grids, contrasted with uranyl acetate and lead citrate and examined in a transmission electron microscope (CM120 BioTwin, FEI-Philips, Hillsboro, Oreg.) operating at 80 kV. Images were recorded on photographic film and were subsequently digitized."}, "S. pneumoniae serotype 3 [3]": {"tested_on": "S. pneumoniae serotype 3", "assay": "ultrastructural analysis (electron microscopy)", "format": "cell-based, Streptococcus pneumoniae", "conditions": "three-hour treatment", "protocol": "as §3"}, "[4]": {"tested_on": "S. pneumoniae serotype 6B", "format": "cell-based, Streptococcus pneumoniae", "conditions": "for effect of salt on the growth inhibitory effect against S. pneumoniae serotype 6B: 100 mM NaCl in gel", "protocol": "as §2"}, "S. pneumoniae serotype 3 [5]": {"tested_on": "S. pneumoniae serotype 3", "format": "cell-based, Streptococcus pneumoniae", "conditions": "for effect of salt on the growth inhibitory effect against S. pneumoniae serotype 3: 100 mM NaCl in gel", "protocol": "as §2"}, "[6]": {"tested_on": "M. catarrhalis strain 035E", "format": "cell-based, Moraxella catarrhalis", "conditions": "for effect of salt on the growth inhibitory effect against M. catarrhalis: 100 mM NaCl in gel; for Diameter of the inhibition zone, M. catarrhalis: no added NaCl, average of 3 experiments ± SD", "protocol": "as §2"}, "[7]": {"conditions": "4 and 10 μg, equivalent to 1 and 2.5 mg/ml"}, "[8]": {"conditions": "40 μg per well, equivalent to 10 mg/ml"}}, "note": "Read-outs that look alike come from different tables or passages of the source. Positions of bridges follow the written chain, without caps; N, C: chain ends. No end group written: not given here."}
{"substance": "GIGDPVTCLKSGAICHPVFCPRRYKQIGTCGLPGTKCCKKP (disulfide 8-37, 15-30, 20-38) [HBD-2, β-defensin 2]", "values": [{"measurement": "ultrastructural changes of NTHi", "setting": "NTHi; 10 μg/ml, 3 hours", "result": "blebbing of the membranes with extrusion of the cytoplasmic contents into the blebs"}, {"measurement": "ultrastructural changes of NTHi", "setting": "NTHi; 10 μg/ml, 3 hours, listed as human β-defensin 2", "result": "Morphological changes were also apparent"}, {"measurement": "reduction in the number of colonies", "setting": "[1]", "result": "~95", "unit": "%"}, {"measurement": "ultrastructural changes of M. catarrhalis", "setting": "M. catarrhalis; 30-minute incubation", "result": "substantial damage to the cells"}, {"measurement": "effect of salt on the growth inhibitory effect against NTHi", "setting": "NTHi strain12", "result": "did not inhibit the activity"}, {"measurement": "effect on growth of NTHi", "setting": "NTHi strain12; [7]", "result": "significantly inhibited the growth"}, {"measurement": "ultrastructural changes of S. pneumoniae serotype 6B", "setting": "[2]", "result": "damage to the capsule and condensation of the cytoplasmic material"}, {"measurement": "ultrastructural changes of S. pneumoniae serotype 3", "setting": "S. pneumoniae serotype 3 [3]; 10 μg/ml", "result": "disappearance of the capsule in certain regions and the lysis of the bacteria"}, {"measurement": "effect of salt on the growth inhibitory effect against S. pneumoniae serotype 6B", "setting": "[4]", "result": "blocked the effect"}, {"measurement": "effect on growth of S. pneumoniae serotype 6B", "setting": "[4]; [7]", "result": "significantly inhibited the growth"}, {"measurement": "effect of salt on the growth inhibitory effect against S. pneumoniae serotype 3", "setting": "S. pneumoniae serotype 3 [5]", "result": "blocked the effect"}, {"measurement": "effect on growth of S. pneumoniae serotype 3", "setting": "S. pneumoniae serotype 3 [5]; [7]", "result": "significantly inhibited the growth"}, {"measurement": "effect of salt on the growth inhibitory effect against M. catarrhalis", "setting": "[6]", "result": "did not inhibit the activity"}, {"measurement": "effect on growth of M. catarrhalis", "setting": "[6]; [7]", "result": "significantly inhibited the growth"}]}
{"substance": "human lysozyme [hLz]", "values": [{"measurement": "ultrastructural changes of NTHi", "setting": "NTHi; 100 μg/ml, 3 hour", "result": "Few completely lysed bacteria were observed"}, {"measurement": "ultrastructural changes of NTHi", "setting": "NTHi; 100 μg/ml, 3 hour, listed as human milk lysozyme", "result": "extrusion of the outer membrane could clearly be seen"}, {"measurement": "ultrastructural changes of NTHi", "setting": "NTHi; 1 mg/ml, 3 hour", "result": "blebbing of the membranes with extrusion of the cytoplasmic contents into the blebs"}, {"measurement": "ultrastructural changes of NTHi, one hour compared with 3 hours", "setting": "NTHi; one hour treatment", "result": "similar"}, {"measurement": "ultrastructural changes of M. catarrhalis", "setting": "M. catarrhalis; 1-minute treatment", "result": "formation of blebs"}, {"measurement": "effect of salt on the growth inhibitory effect against NTHi", "setting": "NTHi strain12", "result": "completely blocked"}, {"measurement": "effect on growth of NTHi", "setting": "NTHi strain12; dose not given", "result": "no effect"}, {"measurement": "ultrastructural changes of S. pneumoniae serotype 3", "setting": "S. pneumoniae serotype 3 [3]; 1 mg/ml", "result": "many fewer bacteria appear to be lysed"}, {"measurement": "Diameter of the inhibition zone, S. pneumoniae 6B", "setting": "[4]; 40 μg in 4 μl per well, no added NaCl, average of 3 experiments ± SD", "result": "5 ± 1.7", "unit": "mm"}, {"measurement": "effect on growth of S. pneumoniae serotype 6B", "setting": "[4]; [8]", "result": "slight but visible inhibition"}, {"measurement": "effect of salt on the growth inhibitory effect against S. pneumoniae serotype 6B", "setting": "[4]", "result": "completely blocked"}, {"measurement": "effect of salt on the growth inhibitory effect against S. pneumoniae serotype 3", "setting": "S. pneumoniae serotype 3 [5]", "result": "completely blocked"}, {"measurement": "effect on growth of S. pneumoniae serotype 3", "setting": "S. pneumoniae serotype 3 [5]; dose not given", "result": "appeared to enhance the growth"}, {"measurement": "Diameter of the inhibition zone, M. catarrhalis", "setting": "[6]; 40 μg in 4 μl per well", "result": "4 ± 1.7", "unit": "mm"}, {"measurement": "effect on growth of M. catarrhalis", "setting": "[6]; [8]", "result": "slight but visible inhibition"}, {"measurement": "effect of salt on the growth inhibitory effect against M. catarrhalis", "setting": "[6]", "result": "completely blocked"}]}
{"substance": "β-defensin 1 (GNFLTGLGHRSDHYNCVSSGGQCLYSACPIFTKIQGTCYRGKAKCCK; not fully specified; cysteine pairing not given here) [HBD-1, human beta defensin 1, cationic antimicrobial peptide produced by epithelial cells]", "values": [{"measurement": "ultrastructural changes of NTHi", "setting": "NTHi; 10 μg/ml, 3 hours", "result": "Morphological changes were also apparent"}, {"measurement": "reduction in the number of colonies", "setting": "[1]", "result": "~95", "unit": "%"}, {"measurement": "effect of salt on the growth inhibitory effect against NTHi", "setting": "NTHi strain12", "result": "completely blocked"}, {"measurement": "effect of salt on the growth inhibitory effect against S. pneumoniae serotype 6B", "setting": "[4]", "result": "completely blocked"}, {"measurement": "effect of salt on the growth inhibitory effect against S. pneumoniae serotype 3", "setting": "S. pneumoniae serotype 3 [5]", "result": "completely blocked"}, {"measurement": "Diameter of the inhibition zone, M. catarrhalis", "setting": "[6]; 10 μg in 4 μl per well", "result": "7.7 ± 0.6", "unit": "mm"}, {"measurement": "effect of salt on the growth inhibitory effect against M. catarrhalis", "setting": "[6]", "result": "completely blocked"}, {"measurement": "effect on growth of M. catarrhalis", "setting": "[6]; high dose, 10 μg, equivalent to 2.5 mg/ml", "result": "effective"}]}
